Experimental data reported in patent US11220674B2, “Stabilization of dehydrogenases with stable coenzymes” (ROCHE DIABETES CARE, INC., priority 2009, dated 2022).

Key:
[1] = target: T1, glucose dehydrogenase (GlucDH) (Bacillus subtilis, UniProt P12310); experiment: SDS gel electrophoresis of GlucDH after storage with coenzyme
Experimental: Test conditions: MW, 10 220 kDa markers; 1: GlucDH/NAD, 5 weeks at 6° C.; 2: GlucDH/NAD, 5 weeks at 32° C./85% relative humidity; 3: GlucDH/cNAD, 5 weeks at 6° C.; 4: GlucDH/cNAD, 5 weeks at 32° C./85% relative humidity.
Test conditions: MW, 10 220 kDa markers; 1: GlucDH 8.5 mg/ml, NAD, 0 hours; 2: GlucDH 8.5 mg/ml, NAD, 22 hours; 3: GlucDH 8.5 mg/ml, NAD, 96 hours; 4: GlucDH 8.5 mg/ml, NAD, 118 hours; 5: GlucDH 8.5 mg/ml, NAD, 140 hours; 6: GlucDH 8.5 mg/ml, NAD, 188 hours; 7: GlucDH 8.5 mg/ml, NAD, 476 hours; 8: GlucDH 8.5 mg/ml, cNAD, 0 hours; 9: GlucDH 8.5 mg/ml, cNAD, 188 hours; 10: GlucDH 8.5 mg/ml, cNAD, 476 hours.

[2] = target: T1, glucose dehydrogenase (GlucDH); experiment: Reaction kinetics, function plot and dry blank value of GlucDH test film after storage; format: biochemical
Experimental: (§1) Carba-NAD (FIG. 1A) or NAD were added to the glucose-specific GlucDH. These formulations were in each case applied to Pokalon film (Lonza) and, after drying, stored under warm and moist conditions (32° C., 85% relative humidity). The reaction kinetics and the function plot were subsequently determined at regular intervals. In parallel, at each of the times of measurement a cNAD/NAD analysis and a determination of the residual activity of the enzyme were carried out.
However, a distinct difference in the kinetics plots is evident after 5 weeks.
There is also a distinct difference in the blank values (dry blank value before application of a blood sample), as is evident from FIG. 3.
The differing stability of glucose dehydrogenase in the presence of NAD and cNAD, respectively, is also evident from comparison of FIGS. 4 and 5.

[3] = target: GlucDH_E170K_K252L (GlucDH-Mut2) (Bacillus subtilis, UniProt P12310, A229V/A236S/E170K/Q252L); experiment: Residual activity of GlucDH mutant after dry storage with coenzyme; format: biochemical; conditions: storage at 32° C. and 85% relative humidity for 24 weeks
Experimental: (§2) FIG. 8 is a depiction of the GlucDH activity after storage of glucose dehydrogenase (GlucDH wt), the double mutant GlucDH_E96G_EI70K (GlucDH Mut1) and the double mutant GlucDH_E170K_K252L (GlucDH Mut2) in the presence of NAD and cNAD, respectively, at 32° C. and 83% relative humidity over a period of 25 weeks.
as §1
(§3) If a mutant is used instead of the wild-type enzyme (from Bacillus subtilis), it is possible to increase the residual GlucDH activity even further. […]

[4] = target: GlucDH_E96G_E170K (GlucDH-Mut1) (Bacillus subtilis, UniProt P12310, A229V/A236S/E170K/E96G/Q252K); experiment: as above; format: biochemical; conditions: storage at 32° C. and 85% relative humidity for 24 weeks
Experimental: as §2, §1, §3

## NC(=O)c1ccc[n+]([C@@H]2C[C@H](COP(=O)([O-])OP(=O)(O)OC[C@H]3O[C@@H](n4cnc5c(N)ncnc54)[C@H](O)[C@@H]3O)[C@@H](O)[C@H]2O)c1 [cNAD, carba-NAD]
[1]; storage at 50° C., after 476 hours
  enzyme band in SDS gel: only slight change
[1]; storage for 5 weeks at 32° C. and 85% relative humidity
  enzyme band in SDS gel: still identifiable as a band with the expected mobility
[2]; after 5 weeks at 32° C., 85% humidity
  function plot of GlucDH after storage: still in the bunch of previous measurements
[2]; after 5 weeks at 32° C., 85% relative humidity
  kinetics plots of GlucDH after storage: remain virtually unchanged
[2]; over 24 weeks at 32° C., 85% humidity
  function plot of GlucDH after storage: only slightly changed at high glucose concentrations
[2]; up to 5 weeks at 32° C., 85% humidity
  dry blank value (before application of blood sample): this does not occur
[3]
  residual activity of GlucDH_E170K_K252L mutant: about 50%
[4]
  residual activity of GlucDH_E96G_E170K mutant: about 70%
